The source of these data is US20260226068A1, “IMIDAZOTRIAZINE IL-17A MODULATORS AND USES THEREOF” (DICE ALPHA, INC., priority 2023, published 2026).

The target of one assay is T1, IL-17A/A (Homo sapiens, UniProt Q16552).
T1 construct: purchased Genscript Z03228
T1 sequence (Q16552 24-155): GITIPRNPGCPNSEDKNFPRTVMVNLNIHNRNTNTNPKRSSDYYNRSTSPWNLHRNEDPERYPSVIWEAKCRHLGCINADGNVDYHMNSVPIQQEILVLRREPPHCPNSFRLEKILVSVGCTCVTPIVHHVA
The experiment in a line: IL-17A/A HEK-Blue cell assay (SEAP reporter). The format is cell-based. The conditions noted are these: HEK-Blue IL-17A reporter cells, IL17A/A 5 ng/mL, 20 hours, SEAP read at A630; read-out: HEK-Blue IL17AA (IC50 for IL-17A/A inhibition).

The target in a further assay is T2, IL-17A/F (Homo sapiens, UniProt Q16552+Q96PD4).
T2 construct: purchased R&D Systems
T2 sequence (Q16552 24-155): T1 sequence (Q16552 24-155)
T2 sequence (Q96PD4 31-163): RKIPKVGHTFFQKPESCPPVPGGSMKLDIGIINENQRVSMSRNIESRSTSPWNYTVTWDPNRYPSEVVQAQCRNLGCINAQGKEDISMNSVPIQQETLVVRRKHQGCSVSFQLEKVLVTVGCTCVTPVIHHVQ
In words: IL-17A/F HEK-Blue cell assay (SEAP reporter). The following applies: HEK-Blue IL-17A reporter cells, IL17A/F 5 ng/mL, 20 hours, SEAP read at A630; read-out: HEK-Blue IL17AF (IC50 for IL-17A/F inhibition). The format is cell-based.

As to `CCn1nccc1C(=O)N[C@H](c1cn2nc(C[C@H]3C[C@@H](C(F)(F)F)CNC3=O)c(CN3CCN(CC(F)(F)F)C(=O)C3)nc2n1)C1CCC(F)(F)CC1` [Compound 352, N—((S)-(4,4-difluorocyclohexyl)(3-((3-oxo-4-(2,2,2-trifluoroethyl)piperazin-1-yl)methyl)-2-(((3R,5R)-2-oxo-5-(trifluoromethyl)piperidin-3-yl)methyl)imidazo[1,2-b][1,2,4]triazin-6-yl)methyl)-1-ethyl-1H-pyrazole-5-carboxamide], the IC50 at IL-17A/A is 100 to 1000 nM; at IL-17A/F, above 1000 nM.
As for `CCn1nccc1C(=O)N[C@H](c1cn2nc(C[C@H]3C[C@@H](C(F)(F)F)CNC3=O)c(C3COCCN3)nc2n1)C1CCC(F)(F)CC1` (stereo partly drawn) [Compound 353, N-((1S)-(4,4-difluorocyclohexyl)(3-(morpholin-3-yl)-2-(((3R,5R)-2-oxo-5-(trifluoromethyl)piperidin-3-yl)methyl)imidazo[1,2-b][1,2,4]triazin-6-yl)methyl)-1-ethyl-1H-pyrazole-5-carboxamide], the values for the IC50 on IL-17A/A and at IL-17A/F were below 100 nM and above 1000 nM, respectively.
In the same order, the values of `CCn1nccc1C(=O)N[C@H](c1cn2nc(C[C@H]3C[C@@H](C(F)(F)F)CNC3=O)c(C3CCOC4(C3)CN(C)C4)nc2n1)C1CCC(F)(F)CC1` (stereo partly drawn) [Compound 354, N-((1S)-(4,4-difluorocyclohexyl)(3-(2-methyl-5-oxa-2-azaspiro[3.5]nonan-8-yl)-2-(((3R,5R)-2-oxo-5-(trifluoromethyl)piperidin-3-yl)methyl)imidazo[1,2-b][1,2,4]triazin-6-yl)methyl)-1-ethyl-1H-pyrazole-5-carboxamide] are 100 to 1000 nM and above 1000 nM.
In the same order, the values of `CCn1nccc1C(=O)N[C@H](c1cn2nc(C[C@H]3C[C@@H](C(F)(F)F)CNC3=O)c(C3COC4(C3)CN(C)C4)nc2n1)C1CCC(F)(F)CC1` (stereo partly drawn) [Compound 355, N-((1S)-(4,4-difluorocyclohexyl)(3-(2-methyl-5-oxa-2-azaspiro[3.4]octan-7-yl)-2-(((3R,5R)-2-oxo-5-(trifluoromethyl)piperidin-3-yl)methyl)imidazo[1,2-b][1,2,4]triazin-6-yl)methyl)-1-ethyl-1H-pyrazole-5-carboxamide] are 100 to 1000 nM and above 1000 nM.
In the same order, the values of `CCn1nccc1C(=O)N[C@H](c1cn2nc(C[C@H]3C[C@@H](C(F)(F)F)CNC3=O)c(CN(C)C3CC3)nc2n1)C1CCC(F)(F)CC1` [Compound 356, N—((S)-(3-((cyclopropyl(methyl)amino)methyl)-2-(((3R,5R)-2-oxo-5-(trifluoromethyl)piperidin-3-yl)methyl)imidazo[1,2-b][1,2,4]triazin-6-yl)(4,4-difluorocyclohexyl)methyl)-1-ethyl-1H-pyrazole-5-carboxamide] are below 100 nM and 100 to 1000 nM.
With `CCn1nccc1C(=O)N[C@H](c1cn2nc(C[C@H]3C[C@@H](C(F)(F)F)CNC3=O)c(N3CCN(C)C4(CC4)C3)nc2n1)C1CCC(F)(F)CC1` [Compound 357, N—((S)-(4,4-difluorocyclohexyl)(3-(4-methyl-4,7-diazaspiro[2.5]octan-7-yl)-2-(((3R,5R)-2-oxo-5-(trifluoromethyl)piperidin-3-yl)methyl)imidazo[1,2-b][1,2,4]triazin-6-yl)methyl)-1-ethyl-1H-pyrazole-5-carboxamide], the IC50 at IL-17A/A is below 100 nM; at IL-17A/F, 100 to 1000 nM.
Regarding `CCn1nccc1C(=O)N[C@H](c1cn2nc(C[C@H]3C[C@@H](C(F)(F)F)CNC3=O)c(C3CCn4nccc4C3)nc2n1)C1CCC(F)(F)CC1` (stereo partly drawn) [Compound 358, N-((1S)-(4,4-difluorocyclohexyl)(2-(((3R,5R)-2-oxo-5-(trifluoromethyl)piperidin-3-yl)methyl)-3-(4,5,6,7-tetrahydropyrazolo[1,5-a]pyridin-5-yl)imidazo[1,2-b][1,2,4]triazin-6-yl)methyl)-1-ethyl-1H-pyrazole-5-carboxamide], the IC50 is below 100 nM at IL-17A/A and 100 to 1000 nM on IL-17A/F.
As to `CCn1nccc1C(=O)N[C@H](c1cn2nc(C[C@H]3C[C@@H](C(F)(F)F)CNC3=O)c(CCN3CCOCC3)nc2n1)C1CCC(F)(F)CC1` [Compound 359], the IC50 at IL-17A/A is below 100 nM; on IL-17A/F, 100 to 1000 nM.
Turning to `CCn1nccc1C(=O)N[C@H](c1cn2nc(C[C@H]3C[C@@H](C(F)(F)F)CNC3=O)c(N3CC4CC(C3)N4C)nc2n1)C1CCC(F)(F)CC1` [Compound 360, N-((1S)-(4,4-difluorocyclohexyl)(3-(6-methyl-3,6-diazabicyclo[3.1.1]heptan-3-yl)-2-(((3R,5R)-2-oxo-5-(trifluoromethyl)piperidin-3-yl)methyl)imidazo[1,2-b][1,2,4]triazin-6-yl)methyl)-1-ethyl-1H-pyrazole-5-carboxamide], the IC50 on IL-17A/A and at IL-17A/F was 100 to 1000 nM each time.
Turning to `CCn1nccc1C(=O)N[C@H](c1cn2nc(C[C@H]3C[C@@H](C(F)(F)F)CNC3=O)c(N3CC4CCC(C3)N4C)nc2n1)C1CCC(F)(F)CC1` [Compound 361, N-((1S)-(4,4-difluorocyclohexyl)(3-(8-methyl-3,8-diazabicyclo[3.2.1]octan-3-yl)-2-(((3R,5R)-2-oxo-5-(trifluoromethyl)piperidin-3-yl)methyl)imidazo[1,2-b][1,2,4]triazin-6-yl)methyl)-1-ethyl-1H-pyrazole-5-carboxamide], the IC50 is below 100 nM on IL-17A/A and 100 to 1000 nM on IL-17A/F.
In the same order, the values of `CN(C)CCn1nccc1C(=O)N[C@H](c1cn2nc(C[C@H]3C[C@@H](C(F)(F)F)CNC3=O)c(C3CCOCC3)nc2n1)C1CCC(F)(F)CC1` [Compound 362, N—((S)-(4,4-difluorocyclohexyl)(2-(((3R,5R)-2-oxo-5-(trifluoromethyl)piperidin-3-yl)methyl)-3-(tetrahydro-2H-pyran-4-yl)imidazo[1,2-b][1,2,4]triazin-6-yl)methyl)-1-(2-(dimethylamino)ethyl)-1H-pyrazole-5-carboxamide] are 100 to 1000 nM and above 1000 nM.
The like results for `CCn1ncnc1C(=O)N[C@H](c1cn2nc(C[C@H]3C[C@@H](C(F)(F)F)CNC3=O)c(C3CCOCC3)nc2n1)C1CCC(F)(F)CC1` [Compound 363, N—((S)-(4,4-difluorocyclohexyl)(2-(((3R,5R)-2-oxo-5-(trifluoromethyl)piperidin-3-yl)methyl)-3-(tetrahydro-2H-pyran-4-yl)imidazo[1,2-b][1,2,4]triazin-6-yl)methyl)-1-ethyl-1H-1,2,4-triazole-5-carboxamide] were, in that order, below 100 nM and above 1000 nM.
In the same order, the values of `CCn1nncc1C(=O)N[C@H](c1cn2nc(C[C@H]3C[C@@H](C(F)(F)F)CNC3=O)c(C3CCOCC3)nc2n1)C1CCC(F)(F)CC1` [Compound 364, N—((S)-(4,4-difluorocyclohexyl)(2-(((3R,5R)-2-oxo-5-(trifluoromethyl)piperidin-3-yl)methyl)-3-(tetrahydro-2H-pyran-4-yl)imidazo[1,2-b][1,2,4]triazin-6-yl)methyl)-1-ethyl-1H-1,2,3-triazole-5-carboxamide] are below 100 nM and above 1000 nM.
